From PMC9386018, “A lymphatic-absorbed multi-targeted kinase inhibitor for myelofibrosis therapy” (Nature Communications, 2022) come the findings set out here.

The test system of data set [1] is MPL^W515L mouse model of myelofibrosis. Nature of the data set: MPL^W515L MF mouse model Study 2: spleen volume by MRI. Format: in vivo. To be noted: for Spleen volume/body weight ratio: Study 2, individual animals, Supplementary Figure 11a. The procedure: Generation of the MPL^W515L mutant MF mouse model was similar to previously described methods. Briefly, female donor BALB/c mice were treated with 5-fluorouracil at 150 mg kg^−1 intraperitoneal for 5 d before harvesting bone marrow. Hematopoietic stem and progenitor cells were enriched with CD117 magnetic beads (Miltenyi Biotec), transduced with retrovirus containing MSCV-hMPL W515L-IRES-GFP, then 50,000 transduced HSPCs along with 300,000 total non-stem cells were injected intravenously into lethally irradiated female BALB/c recipients. Development of MF was evaluated by spleen volumes using MRI beginning ~14 d following bone marrow transplantation (BMT) as outlined below, continuing weekly until end of the study. Mice were separated into equal groups based on spleen size ~14–21 d post-BMT, then treated with vehicle (Maisine CC) or LP-182 at 400 mg kg^−1 daily by oral gavage for 14–28 d or until mice were euthanized using guidelines for end stage illness and humane endpoints. Untreated healthy control animals were used for experimental comparisons. Tissues were harvested and processed for flow cytometry (as described above), LCMS/MS, immuno-blotting, and histological analysis (as described in Supplementary Methods) at the defined study endpoint(s), approximately 1–2 h post-treatment with vehicle or LP-182. Briefly, blood samples were collected, transferred into K2-EDTA tubes (BD Microtainer), inverted gently to mix, then centrifuged at 2000 x g for 15 min. […] Dissection and bone marrow isolation from mouse femur and tibia was performed similar to previously described methods. Briefly, the hind limbs from mice were dissected, muscle and connective tissue removed, and bones were frozen at −80 °C. Femur and tibia were thawed separately, placed knee-end down in 18 gauge needle-pierced 0.5 mL microcentrifuge tubes nested inside 1.5 or 2 mL microcentrifuge tubes containing 1.4 mm ceramic beads (Fisher Scientific), then bone marrow was isolated by centrifugation at 10,000 x g for 1 min and processed for analysis by LCMS/MS (above; femur) or immuno-blotting (tibia). […] Soluble protein extracts were isolated by centrifugation at 15,000 x g for 15 min at 4 °C, quantified using Micro BCA protein assay (Thermo Scientific), then mixed with reducing 6X SDS-PAGE loading dye, heated for 8 min at 95 °C, and stored at −20 °C until immuno-blot analysis. Whole cell lysates were resolved by 10% SDS-PAGE, transferred to PVDF (Immobilon-P; MilliporeSigma), then membranes were blocked with 5% BSA (Equitech-Bio) in TBS containing 0.1% Tween-20 (TBST) for 1 h at room temperature with gentle orbital shaking. […]

Data set [2] is described as follows: Microsomal stability. Format: in vitro ADME. To be noted: mouse, liver microsomes; ~1 µM, NADPH, 37 °C; read-out: t1/2 in murine liver microsomes. The procedure: Quantitative determination of LP-182 stability in murine liver microsomes was performed by the University of Michigan Pharmacokinetics Core. […]; in 100 mM phosphate buffer, 3 mM MgCl2) to a final concentration of […], and then reactions were sampled over 60 min. Aliquots were removed at the designated time points, quenched by addition of 4 volumes of cold acetonitrile, then centrifuged at 10,000 x g for 5 min to pellet protein precipitates. […] The natural log peak area ratio of compound to internal standard (Acmpd/AIstd) was plotted against time to determine pharmacokinetic properties of microsomal stability. All analyses, data processing, and calculations were performed and provided by the core. Data was generated from a single independent experiment.
On the technique in general: Liver microsomes are vesicles of endoplasmic reticulum, rich in cytochrome P450 enzymes.

The subject of data set [3] is MPL^W515L mouse model of myelofibrosis. Put plainly: MPL^W515L MF mouse model: survival. The class given is in vivo. Particulars: MPL^W515L mice, oral 400 mg kg^−1 daily. The procedure:
Generation of the MPL^W515L mutant MF mouse model was similar to previously described methods. Briefly, female donor BALB/c mice were treated with 5-fluorouracil at 150 mg kg^−1 intraperitoneal for 5 d before harvesting bone marrow. Hematopoietic stem and progenitor cells were enriched with CD117 magnetic beads (Miltenyi Biotec), transduced with retrovirus containing MSCV-hMPL W515L-IRES-GFP, then 50,000 transduced HSPCs along with 300,000 total non-stem cells were injected intravenously into lethally irradiated female BALB/c recipients. Development of MF was evaluated by spleen volumes using MRI beginning ~14 d following bone marrow transplantation (BMT) as outlined below, continuing weekly until end of the study. Mice were separated into equal groups based on spleen size ~14–21 d post-BMT, then treated with vehicle (Maisine CC) or LP-182 at 400 mg kg^−1 daily by oral gavage for 14–28 d or until mice were euthanized using guidelines for end stage illness and humane endpoints. Untreated healthy control animals were used for experimental comparisons. […] Soluble protein extracts were isolated by centrifugation at 15,000 x g for 15 min at 4 °C, quantified using Micro BCA protein assay (Thermo Scientific), then mixed with reducing 6X SDS-PAGE loading dye, heated for 8 min at 95 °C, and stored at −20 °C until immuno-blot analysis. […]

The nature of data set [4]: Compound quantitation in blood and mesenteric lymph nodes. Format: in vivo, mouse. Particulars: female, CD-1, mouse, mesenteric lymph nodes; mice, 30 min after oral 100-1000 mg kg^−1. As for the experimental part: Whole blood and mesenteric lymph nodes were collected either 30 min or 4 h following compound administration and stored at −20 °C until future processing and analysis by the University of Michigan Pharmacokinetics Core as above, or as outlined below, to determine compound concentrations in each tissue. […] Data was generated from n ≥ 4 individual animals per compound per study group or dose.
Briefly, acetonitrile was added to a final concentration of 60–80% to bone marrow, whole blood, plasma, lymphatic fluid, lymphatic proteo-lipid sub-fractions, or mesenteric lymph node samples for compound extraction. Extraction was performed by shaking and/or bead rupture using a Precellys Evolution tissue homogenizer (Bertin Technologies SAS). […] Optimization of MS and MS/MS parameters for MRM quantitation and maximum sensitivity of individual compounds was performed using SCIEX Analyst software (AB Sciex). […] All LC-MS/MS acquisitions were performed with an independent standard curve for each group of analytes and for each individual run. All solvents utilized were of Optima LC-MS Grade (Fisher Scientific). Data was generated from n ≥ 2 individual animals per compound per study condition or dose.

Data set [5] concerns Caspase 3/7 activity in SET-2 cells. Nature of the data set: SET-2 Caspase activation assay (Caspase-Glo 3/7). Format: cell-based, human. To be noted: 48 h; for Relative Caspase activation: normalized to vehicle, replicates. The procedure: Viable cells were counted by CellTiter-Fluor Assay (Promega) according to manufacturer’s protocol, and all fluorescence values were corrected by a no-cell control. For Caspase activation assays, SET-2 cells were cultured for 48 h at 10^6 cells mL^−1 with various concentration of LP-182 or vehicle (DMSO). Caspase activity was measured by Caspase-Glo 3/7 assay (Promega) according to the manufacturer’s protocol, and all luminescence values were corrected by a no-cell control. Dose response proliferation and Caspase activation data was normalized to vehicle treated control cells and analyzed by non-linear regression for determination of IC50 values. Data was generated from n = 3 independent experiments performed in replicate.

Each structure is given as a SMILES string. Several values for one entry are separate records, joined by “and”; a condition that tells them apart may be missing. Equal entries are not always repeated.

With `O=C(NOCCOCCOCCOCCC(=O)N1CCN(c2cnc3ccc(-c4cnc(Cl)c(NS(=O)(=O)c5ccc(F)cc5)c4)cc3n2)CC1)c1ccc(F)c(F)c1Nc1ccc(I)cc1F` [LP-182, N-(2-(2-(2-(3-(4-(7-(6-chloro-5-((4-fluorophenyl)sulfonamido)pyridin-3-yl)quinoxalin-2-yl)piperazin-1-yl)-3-oxopropoxy)ethoxy)ethoxy)ethoxy)-3,4-difluoro-2-((2-fluoro-4-iodophenyl)amino)benzamide], in data set [1] (Study 2, MPL^W515L mice, oral 400 mg kg^−1 daily, after 14 d), the “attenuation of spleen volume increase compared to vehicle” value is on record as ~ 35%. The “Spleen volume/body weight ratio” value in data set [1] (15 Days Post-BMT) is 9.2805 mm3/g and 6.788 mm3/g and 8.526 mm3/g and 6.999 mm3/g and 8.219 mm3/g and 8.1905 mm3/g and 7.226 mm3/g and 10.8805 mm3/g; in data set [1] (22 Days Post-BMT) it was 22.8 mm3/g and 16.1111 mm3/g and 16.0806 mm3/g and 22.1506 mm3/g and 12.2778 mm3/g and 11.0626 mm3/g and 6.573 mm3/g and 8.03 mm3/g; in data set [1] (29 Days Post-BMT), 30.4359 mm3/g and 16.7368 mm3/g and 15.8947 mm3/g and 27.7838 mm3/g and 8.806 mm3/g and 15.337 mm3/g and 5.115 mm3/g and 6.324 mm3/g. The half-life in data set [2] is around 8 min. The “overall survival (Kaplan-Meier)” value in data set [3] is listed as “significantly improved overall survival”. Besides, the “survival to planned end of study” value in data set [3] (28 d treatment) was “survived 50 d post-transplant”. In addition, the concentration at 30 min in data set [4] lay in the range of 5 to 15 µM. Besides, the “apoptotic cell death (Caspase activation)” value in data set [5] is recorded as “initiated apoptotic cell death”. For the same molecule, the “Relative Caspase activation” value is 1.094 and 1.105 and 1.123 and 1.124 and 1.108 and 1.081 in data set [5] (LP-182 5 µM); 1.411 and 1.334 and 1.453 and 1.372 and 1.41 and 1.477 in data set [5] (LP-182 10 µM); 1.934 and 1.9571 and 1.914 and 1.975 and 2.004 and 1.977 in data set [5] (LP-182 20 µM); 2.054 and 1.793 and 2.072 and 2.115 and 2.193 and 2.206 in data set [5] (LP-182 40 µM).
